According to patent US6906077B1, “Use of neurotrophic factor stimulators for the treatment of ophthalmic neurodegenerative diseases” (Alcon Manufacturing, Ltd., priority 1998, dated 2005):

Columns and labels:
[1] = test system: RGCs (retinal ganglion cells); assay: Retinal Ganglion Cell Survival Assay (serum deprivation); assay type: cell-based, Neonatal, Sprague-Dawley rats; details: cultured without serum; Propentofylline 100 μM; 3 days after serum removal; survival with serum = 100%; mean and SEM (n = 6)
Description: Retinal Ganglion Cell Survival Assay:
Techniques for the isolation and culture of RGCs were adapted from those reported by Takahashi N. et al., Rat retinal ganglion cells in culture. Exp. Eye Res. volume 53, pages 565-572 (1991). […] Two to 4 days later, retina cells were dissociated. Cultured RGCs were identified by sufficient Di-I fluorescence to be observed visually using a fluorescent microscope.
Neonatal, Sprague-Dawley rats, 2-5 days old, were anesthetized by hypothermia, after which, a 2 mm midline opening was made in the scalp just caudal to the traverse sinus. The tip of the injection needle (30 gauge) was inserted 6 mm below the top of the skull, and a 5 μl Di-I solution, containing 3 mg/ml Di-I (1,1′-dioctadecyl-3,3,3′,3′-tetramethylindo-carbocyanine perchlorate (Molecular Probes, Eugene, Oreg.) in 90% ethanol and 10% dimethylsulfoxide, was injected. The wound was then covered with a drop of Flexible Collodion (Amend Drug & Chemical Co., Irvington, N.J.). Rats were returned to their mother after warming and recovery from anesthesia.
Two to 4 days after Di-I injection, rats were anesthetized by hypothermia and sacrificed by decapitation. Their eyes were enucleated and placed in Dulbecco's modified Eagle's medium: Nutrient mixture F12 (1:1; DMEM/F12, Gibco Co., Grand Island, N.Y.). The retina from each eye was detached and isolated. […]

[2] = test system: axotomized RGCs; details: single intravitreal injection of 5 μg on Day 0; one week after; untreated retinas lost nearly half of the axotomized RGCs; cited from earlier work

Molecule	RGC Survival (%) [1]	survival of axotomized RGCs [2]
CCCn1cnc2c1c(=O)n(CCCCC(C)=O)c(=O)n2C [Propentofylline, propentofylline]	96.9 ± 4.8 %	–
brain-derived neurotrophic factor (protein, UniProt P23560 19-247, looked up) Neurotrophic factor BDNF …: APMKEANIRGQGGLAYPGVRTHGTLESVNGPKAGSRGLTSLADTFEHVIEELLDEDQKVRPNEENNKDADLYTSRVMLSSQVPLEPPLLFLLEEYKNYLDAANMSMRVRRHSDPARRGELSVCDSISEWVTAADKKTAVDMSGGTVTVLEKVPVSKGQLKQYFYETKCNPMGYTKEGCRGIDKRHWNSQCRTTQSYVRALTMDSKKRIGWRFIRIDTSCVCTLTIKRGR	–	virtually all RGCs were present
